Source: ChEMBL document CHEMBL5260854, “Discovery of Novel TRPM8 Blockers Suitable for the Treatment of Somatic and Ocular Painful Conditions: A Journey through pKa and LogD Modulation” (J Med Chem, 2021)
In brackets after ≈: the same amount, converted by molar mass. Values belong to the compound of their own block, whether it stands above or below them. Activity calls are given as the source filed them. The rule behind the calls is not given here.

Key:
[1] = target: T1, Transient receptor potential cation channel subfamily M member 8 (Homo sapiens, UniProt Q7Z2W7); assay: Inhibition of human TRPM8 expressed in HEK293 cells assessed as reduction in ethyl 4-methoxy-2-phenylthiazole-5-carboxylate induced Ca2+ efflux preincubated for 5 mins followed by ethyl 4-methoxy-2-phenylthiazole-5-carboxylate addition and measured for 3 mins by FLIPR assay; assay type: cell-based
T1 sequence (Q7Z2W7 whole entry): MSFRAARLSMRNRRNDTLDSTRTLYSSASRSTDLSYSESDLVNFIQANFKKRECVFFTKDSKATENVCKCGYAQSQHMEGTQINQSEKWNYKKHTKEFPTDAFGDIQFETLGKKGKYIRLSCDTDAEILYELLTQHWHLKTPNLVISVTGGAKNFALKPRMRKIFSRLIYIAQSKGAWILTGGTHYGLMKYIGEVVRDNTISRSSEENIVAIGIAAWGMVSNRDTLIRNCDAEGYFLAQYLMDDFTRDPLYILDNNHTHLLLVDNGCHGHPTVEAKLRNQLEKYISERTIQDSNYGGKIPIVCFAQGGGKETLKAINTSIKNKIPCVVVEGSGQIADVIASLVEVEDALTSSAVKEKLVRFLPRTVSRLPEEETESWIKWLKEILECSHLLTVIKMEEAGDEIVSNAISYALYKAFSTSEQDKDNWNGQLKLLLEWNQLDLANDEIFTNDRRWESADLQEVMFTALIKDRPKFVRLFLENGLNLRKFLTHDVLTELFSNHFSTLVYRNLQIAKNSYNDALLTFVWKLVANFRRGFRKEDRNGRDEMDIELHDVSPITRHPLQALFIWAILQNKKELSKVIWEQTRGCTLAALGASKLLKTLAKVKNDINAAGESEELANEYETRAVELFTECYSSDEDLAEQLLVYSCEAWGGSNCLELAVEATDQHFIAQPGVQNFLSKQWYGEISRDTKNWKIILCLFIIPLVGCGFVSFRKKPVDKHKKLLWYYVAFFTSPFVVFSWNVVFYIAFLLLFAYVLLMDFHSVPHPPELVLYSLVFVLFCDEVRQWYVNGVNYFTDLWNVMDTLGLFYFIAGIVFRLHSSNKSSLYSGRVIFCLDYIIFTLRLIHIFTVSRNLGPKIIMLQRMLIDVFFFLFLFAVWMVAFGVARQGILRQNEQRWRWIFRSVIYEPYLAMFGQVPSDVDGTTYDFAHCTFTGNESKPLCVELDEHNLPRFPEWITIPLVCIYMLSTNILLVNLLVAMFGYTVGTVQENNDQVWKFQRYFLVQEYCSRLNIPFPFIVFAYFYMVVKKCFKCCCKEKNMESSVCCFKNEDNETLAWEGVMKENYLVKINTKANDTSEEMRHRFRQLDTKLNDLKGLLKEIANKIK

[2] = Dissociation constant, pKa of the compound; assay type: physicochemical
[3] = Metabolic stability in rat liver microsomes assessed as phase 2 metabolism by measuring half life; assay type: ADME, Microsome
[4] = Metabolic stability in rat liver microsomes assessed as phase 1 metabolism by measuring half life; assay type: ADME, Microsome
[5] = Lipophilicity, logD of the compound at pH 7.4; assay type: physicochemical; conditions: buffer
[6] = Metabolic stability in rat liver microsomes assessed as parent compound remaining after 30 mins; assay type: ADME, Microsome; conditions: for remaining at 0.5 h: read-out: Stability
[7] = Lipophilicity, logP of compound; assay type: physicochemical; conditions: octanol/water
[8] = Half life in rat at 10 mg/kg, po; assay type: ADME, organism-based; conditions: in vivo
[9] = target: T1, Transient receptor potential cation channel subfamily M member 8; assay: Inhibition of human TRPM8 expressed in HEK293 cells assessed as reduction in cold stimulated Ca2+ efflux preincubated for 5 mins followed by cold stimulation and measured for 3 mins; assay type: cell-based
[10] = target: Transient receptor potential cation channel subfamily A member 1 (Homo sapiens) (UniProt O75762); assay: Inhibition of TRPA1 (unknown origin) upto 100 uM
Sequence of Transient receptor potential cation channel subfamily A member 1 (Homo sapiens) (O75762 whole entry): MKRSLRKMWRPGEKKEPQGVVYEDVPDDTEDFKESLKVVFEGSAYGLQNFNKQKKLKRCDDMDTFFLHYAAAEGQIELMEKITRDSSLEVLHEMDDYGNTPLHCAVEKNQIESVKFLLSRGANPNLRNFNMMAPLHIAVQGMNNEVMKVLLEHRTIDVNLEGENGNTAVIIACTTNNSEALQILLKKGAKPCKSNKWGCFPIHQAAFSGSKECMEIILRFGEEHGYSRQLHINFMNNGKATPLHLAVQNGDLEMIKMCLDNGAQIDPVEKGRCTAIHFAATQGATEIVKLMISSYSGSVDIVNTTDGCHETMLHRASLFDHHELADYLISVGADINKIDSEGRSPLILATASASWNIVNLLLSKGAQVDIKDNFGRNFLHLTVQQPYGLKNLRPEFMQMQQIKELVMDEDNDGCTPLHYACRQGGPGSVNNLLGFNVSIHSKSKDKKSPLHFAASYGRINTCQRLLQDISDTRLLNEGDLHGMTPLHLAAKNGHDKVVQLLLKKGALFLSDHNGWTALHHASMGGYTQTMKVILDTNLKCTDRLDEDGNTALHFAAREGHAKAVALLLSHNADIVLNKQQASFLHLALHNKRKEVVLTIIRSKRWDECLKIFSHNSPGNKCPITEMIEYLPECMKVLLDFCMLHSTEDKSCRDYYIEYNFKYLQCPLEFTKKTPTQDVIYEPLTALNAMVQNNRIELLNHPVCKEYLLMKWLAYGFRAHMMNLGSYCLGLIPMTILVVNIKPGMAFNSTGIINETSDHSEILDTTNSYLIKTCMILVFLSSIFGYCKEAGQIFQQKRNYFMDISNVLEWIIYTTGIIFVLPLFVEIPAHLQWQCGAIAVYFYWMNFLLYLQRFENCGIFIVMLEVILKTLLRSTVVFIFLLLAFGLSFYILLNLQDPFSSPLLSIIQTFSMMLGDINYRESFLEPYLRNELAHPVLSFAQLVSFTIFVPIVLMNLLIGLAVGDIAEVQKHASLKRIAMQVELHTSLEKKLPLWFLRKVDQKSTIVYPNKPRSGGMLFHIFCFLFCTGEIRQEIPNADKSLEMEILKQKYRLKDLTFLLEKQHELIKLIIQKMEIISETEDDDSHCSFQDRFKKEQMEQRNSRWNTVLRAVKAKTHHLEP

[11] = target: Transient receptor potential cation channel subfamily V member 4 (Homo sapiens) (UniProt Q9HBA0); assay: Inhibition of TRPV4 (unknown origin) upto 100 uM
Sequence of Transient receptor potential cation channel subfamily V member 4 (Homo sapiens) (Q9HBA0 whole entry): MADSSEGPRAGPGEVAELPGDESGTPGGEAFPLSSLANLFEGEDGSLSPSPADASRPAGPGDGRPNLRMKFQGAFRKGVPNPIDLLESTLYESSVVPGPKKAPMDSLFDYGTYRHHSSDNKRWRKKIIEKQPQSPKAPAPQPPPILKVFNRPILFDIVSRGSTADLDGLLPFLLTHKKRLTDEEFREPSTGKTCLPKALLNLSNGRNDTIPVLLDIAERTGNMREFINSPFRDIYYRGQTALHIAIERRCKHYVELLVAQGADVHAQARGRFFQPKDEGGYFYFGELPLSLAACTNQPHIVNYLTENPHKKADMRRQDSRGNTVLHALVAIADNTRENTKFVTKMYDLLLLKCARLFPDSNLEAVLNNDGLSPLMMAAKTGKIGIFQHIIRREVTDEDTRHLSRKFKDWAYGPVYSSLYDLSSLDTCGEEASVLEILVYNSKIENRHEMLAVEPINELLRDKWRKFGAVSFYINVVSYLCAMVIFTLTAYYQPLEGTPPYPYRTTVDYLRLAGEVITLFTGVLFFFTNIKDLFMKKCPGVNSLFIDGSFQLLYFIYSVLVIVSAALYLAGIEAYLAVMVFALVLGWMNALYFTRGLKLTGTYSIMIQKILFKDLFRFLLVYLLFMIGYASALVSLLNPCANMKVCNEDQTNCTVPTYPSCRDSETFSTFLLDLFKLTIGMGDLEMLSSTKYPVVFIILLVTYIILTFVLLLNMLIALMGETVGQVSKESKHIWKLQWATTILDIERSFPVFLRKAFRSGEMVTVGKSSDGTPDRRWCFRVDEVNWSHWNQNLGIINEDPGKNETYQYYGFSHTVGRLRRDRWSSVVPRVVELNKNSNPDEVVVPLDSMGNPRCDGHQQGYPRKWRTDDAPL

[12] = target: Transient receptor potential cation channel subfamily V member 1 (Homo sapiens) (UniProt Q8NER1); assay: Inhibition of TRPV1 (unknown origin) upto 100 uM
Sequence of Transient receptor potential cation channel subfamily V member 1 (Homo sapiens) (Q8NER1 whole entry): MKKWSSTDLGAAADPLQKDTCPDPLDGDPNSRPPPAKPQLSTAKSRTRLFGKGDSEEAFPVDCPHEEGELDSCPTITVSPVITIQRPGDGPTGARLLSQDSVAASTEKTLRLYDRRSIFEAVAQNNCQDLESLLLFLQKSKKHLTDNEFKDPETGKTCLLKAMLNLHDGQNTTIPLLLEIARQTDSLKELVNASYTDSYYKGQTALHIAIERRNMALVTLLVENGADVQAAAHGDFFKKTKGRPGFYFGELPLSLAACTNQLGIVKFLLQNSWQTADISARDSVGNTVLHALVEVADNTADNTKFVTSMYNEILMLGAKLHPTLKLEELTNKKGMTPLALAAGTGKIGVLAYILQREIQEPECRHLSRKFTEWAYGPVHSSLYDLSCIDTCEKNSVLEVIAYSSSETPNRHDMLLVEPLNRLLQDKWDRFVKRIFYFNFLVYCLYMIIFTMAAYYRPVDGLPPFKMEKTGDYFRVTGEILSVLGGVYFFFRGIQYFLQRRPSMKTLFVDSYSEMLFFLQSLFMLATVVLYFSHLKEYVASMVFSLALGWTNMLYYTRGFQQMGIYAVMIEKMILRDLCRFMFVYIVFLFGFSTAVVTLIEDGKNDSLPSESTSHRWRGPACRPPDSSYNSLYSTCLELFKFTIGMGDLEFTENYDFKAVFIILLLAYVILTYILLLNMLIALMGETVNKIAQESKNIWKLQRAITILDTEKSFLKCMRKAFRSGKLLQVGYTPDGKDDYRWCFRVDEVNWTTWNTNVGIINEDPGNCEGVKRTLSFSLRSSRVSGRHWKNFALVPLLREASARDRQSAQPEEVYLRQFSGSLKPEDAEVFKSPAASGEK

[13] = Cmax in rat at 10 mg/kg, po; assay type: ADME, organism-based; design: dose 10 mg/kg, route po; conditions: in vivo
[14] = target: Transient receptor potential cation channel subfamily M member 3 (Homo sapiens) (UniProt Q9HCF6); assay: Inhibition of TRPM3 (unknown origin) upto 100 uM
[15] = Solubility of compound at pH 7.4; assay type: physicochemical; conditions: buffer
[16] = Clearance in rat at 5 mg/kg, iv; assay type: ADME, organism-based; conditions: in vivo
[17] = Oral bioavailability in rat at 10 mg/kg; assay type: ADME, organism-based; conditions: in vivo
[18] = Volume of distribution at steady state in rat at 5 mg/kg, iv; assay type: ADME, organism-based; conditions: in vivo, read-out: Vdss
[19] = Half life in rat at 5 mg/kg, iv; assay type: ADME, organism-based; conditions: in vivo
[20] = target: T1, Transient receptor potential cation channel subfamily M member 8; assay: Inhibition of human TRPM8 expressed in HEK293 cells assessed as reduction in icilin induced Ca2+ efflux preincubated for 5 mins followed by icilin addition and measured for 3 mins by FLIPR assay; assay type: cell-based
[21] = Metabolic stability in rat liver microsomes assessed as parent compound remaining after 4 hrs; assay type: ADME, Microsome; conditions: read-out: Stability
[22] = Volume of distribution at steady state in rat at 10 mg/kg, iv; assay type: ADME, organism-based; conditions: in vivo, read-out: Vdss
[23] = Half life in rat at 10 mg/kg, iv; assay type: ADME, organism-based; conditions: in vivo
[24] = Clearance in rat at 10 mg/kg, iv; assay type: ADME, organism-based; conditions: in vivo
[25] = Stability in stimulated gastric fluid at pH 1.2; assay type: physicochemical; conditions: simulated gi fluid
[26] = Metabolic stability in human liver S9 fraction assay as half life in presence of NADPH, glutathione, UDPGA and PAPS; assay type: ADME, subcellular
[27] = target: Sodium channel protein type 9 subunit alpha (Homo sapiens) (UniProt Q15858); assay: Inhibition of Nav1.7 (unknown origin)
[28] = Apparent permeability in HCECs at 0.1%; assay type: ADME, cell-based, HCEC; conditions: human, not told
[29] = Half life in rat at 3 mg/kg, iv; assay type: ADME, organism-based; conditions: in vivo
[30] = Stability in human hepatocytes assessed as half life; assay type: ADME, cell-based, Hepatocyte
[31] = Volume of distribution at steady state in rat at 3 mg/kg, iv; assay type: ADME, organism-based; conditions: in vivo, read-out: Vdss
[32] = Stability in human plasma assessed as compound remaining after 60 mins; assay type: ADME, cell-free; conditions: read-out: Stability
[33] = Clearance in rat at 3 mg/kg, iv; assay type: ADME, organism-based; conditions: in vivo
[34] = Stability in rat plasma assessed as compound remaining after 60 mins; assay type: ADME, cell-free; conditions: read-out: Stability

IC50 [1]: 0.239 µM
SMILES: CCn1nnc(-c2sc(-c3cccc(O)c3)nc2O)n1

IC50 [1]: 0.061 µM
SMILES: CCn1nnc(-c2sc(-c3cccc(N)c3)nc2O)n1

IC50 [1]: > 100 µM
SMILES: CCOC(=O)c1sc(-c2ccccc2)nc1OC

pKa [2]: 4.27
half-life [3]: 97.8 min
half-life [4]: 59.1 min
logD [5]: 0.91
SMILES: CC(C)C(=O)c1sc(-c2cccc(F)c2)nc1O

IC50 [1]: > 100 µM
SMILES: CCOC(=O)c1sc(-c2ccccc2)nc1CO

IC50 [1]: 16.5 µM
SMILES: CCn1nnc(-c2sc(-c3c(Cl)cccc3Cl)nc2O)n1

IC50 [1]: 1.3 µM
SMILES: CCOC(=O)c1sc(-c2cccc(Cl)c2)nc1O

IC50 [1]: 0.575 µM
remaining at 0.5 h [6]: 32%
logP [7]: 3.6
SMILES: CCN(C(=O)/C=C/c1cccc([N+](=O)[O-])c1)c1ccccc1

IC50 [1]: 0.029 µM
half-life [8]: 188 min
IC50 [9]: 0.0085 µM
inhibition [10]: inactive
inhibition [11]: inactive
inhibition [12]: inactive
half-life [3]: 136 min
Cmax [13]: 10700 ng/mL
inhibition [14]: inactive
half-life [4]: 118 min
logD [5]: 0.44
solubility [15]: 15.2 mM (≈ 3820 µg/mL)
clearance [16]: 5.31 mL/min/kg
bioavailability [17]: 98.8%
Vd [18]: 1.69 L/kg
half-life [19]: 189 min
IC50 [20]: 0.033 µM
SMILES: CCC(=O)c1sc(-c2cccc(F)c2)nc1O

IC50 [1]: > 100 µM
SMILES: COC(=O)c1nc(-c2ccccc2)sc1O

IC50 [1]: > 100 µM
SMILES: CCNC(=O)c1sc(-c2ccccc2)nc1O

IC50 [1]: > 100 µM
SMILES: Oc1nc(-c2cccc(F)c2)sc1-c1nn[nH]n1

IC50 [1]: 0.214 µM
SMILES: Cn1nnc(-c2sc(-c3cccc(F)c3)nc2O)n1

IC50 [1]: > 100 µM
SMILES: CCn1nnnc1-c1sc(-c2cccc(F)c2)nc1O

IC50 [1]: 9.1 µM
SMILES: Cc1nnc(-c2sc(-c3cccc(F)c3)nc2O)o1

IC50 [1]: 11.6 µM
SMILES: CCn1nnc(-c2sc(-c3ccc(O)cc3)nc2O)n1

pKa [2]: 4.7
IC50 [1]: 0.039 µM
half-life [8]: 137 min
remaining at 4 h [21]: 105%
half-life [3]: > 5 min
Vd [22]: 0.259 L/kg
Cmax [13]: 2140 ng/mL
half-life [23]: 33.6 min
clearance [24]: 24 mL/min/kg
Stability [25]: 50%
half-life [4]: 27 min
logD [5]: 1.5
solubility [15]: 0.08 mM (≈ 21.4 µg/mL)
bioavailability [17]: 15%
SMILES: CCOC(=O)c1sc(-c2cccc(F)c2)nc1O

pKa [2]: 4.31
half-life [3]: 127 min
half-life [4]: 39.3 min
logD [5]: 1.18
SMILES: CCCC(=O)c1sc(-c2cccc(F)c2)nc1O

IC50 [1]: 0.032 µM
SMILES: O=C(c1sc(-c2cccc(F)c2)nc1O)N1CCCCCO1

pKa [2]: 9.3
half-life [26]: 53 min
inhibition [27]: inactive
inhibition [10]: inactive
inhibition [11]: inactive
inhibition [12]: inactive
logD [5]: 0.77
solubility [15]: 9.7 mM (≈ 2840 µg/mL)
Papp at 0.1 % [28]: 48.3 ×10⁻⁶ cm/s
IC50 [20]: 0.0045 µM
SMILES: O=C(c1sc(-c2ccccc2O)nc1O)N1CCCO1

half-life [29]: 44.4 min
pKa [2]: 5.9
half-life [8]: 307 min
half-life [3]: > 5 min
half-life [30]: 56.7 min
half-life [6]: < 30 min
Cmax [13]: 47 ng/mL
Vd [31]: 0.082 L/kg
remaining at 1 h [32]: 95%
clearance [33]: 3.11 mL/min/kg
remaining at 1 h [34]: 92%
half-life [4]: 38 min
logD [5]: 2
solubility [15]: 0.631 mM (≈ 184 µg/mL)
bioavailability [17]: 1%
SMILES: CCn1nnc(-c2sc(-c3cccc(F)c3)nc2O)n1

IC50 [1]: > 100 µM
SMILES: O=C(c1sc(-c2cccc(F)c2)nc1O)N1CCCOC1

IC50 [1]: 0.286 µM
SMILES: CCn1nnc(-c2sc(-c3ccc(F)cc3)nc2O)n1

remaining at 0.5 h [6]: 41%
logP [7]: 3.57
SMILES: CSc1cc(-c2ccc(Cl)cc2)[nH]n1

IC50 [1]: > 100 µM
SMILES: CCOC(=O)c1sc(-c2ccccc2)nc1N

IC50 [1]: 7.55 µM
SMILES: CCn1nnc(-c2sc(-c3ccc(Cl)cc3)nc2O)n1

IC50 [1]: 1.68 µM
SMILES: CCON(C)C(=O)c1sc(-c2cccc(F)c2)nc1O

IC50 [1]: > 100 µM
SMILES: CCOC(=O)c1oc(-c2ccc(Cl)cc2)nc1O

pKa [2]: 7.8
remaining at 0.5 h [6]: 29%
logD [5]: 3.19
logP [7]: 4.33
SMILES: COc1cccc(NS(=O)(=O)c2c(C)cc(C)c([N+](=O)[O-])c2C)c1

IC50 [1]: > 100 µM
SMILES: CCOC(=O)c1cnc(-c2ccccc2)s1

Papp at 0.1 % [28]: 1.9 ×10⁻⁶ cm/s
SMILES: O=C(O)c1ccc(C(=O)O)c(-c2c3ccc(=O)cc-3oc3cc(O)ccc23)c1 [6-Carboxyfluorescein]

Papp at 0.1 % [28]: 36.6 ×10⁻⁶ cm/s
SMILES: CCN(CC)c1ccc2c(-c3ccccc3C(=O)O)c3ccc(=[N+](CC)CC)cc-3oc2c1.[Cl-] [RHODAMINE]

IC50 [1]: > 100 µM
SMILES: CCOC(=O)c1ccc(-c2cccc(F)c2)cc1O

IC50 [1]: 0.032 µM
SMILES: CCOC(=O)c1sc(-c2ccccc2)nc1O

pKa [2]: 4.1
half-life [3]: 108 min
half-life [4]: 35.2 min
logD [5]: 0.77
SMILES: CC(=O)c1sc(-c2cccc(F)c2)nc1O

pKa [2]: 6.3
half-life [26]: > 120 min
logD [5]: 0.82
solubility [15]: 7.1 mM (≈ 2090 µg/mL)
Papp at 0.1 % [28]: 16.4 ×10⁻⁶ cm/s
SMILES: O=C(c1sc(-c2cccc(F)c2)nc1O)N1CCCO1

pKa [2]: 4.3
IC50 [1]: 0.289 µM
half-life [3]: 156 min
half-life [4]: 49.8 min
logD [5]: 1.35
SMILES: CC(C)CC(=O)c1sc(-c2cccc(F)c2)nc1O

IC50 [1]: 0.95 µM
SMILES: CCOC(=O)Cc1sc(-c2ccccc2)nc1O

pKa [2]: 6.3
remaining at 0.5 h [6]: 42%
logD [5]: 2.5
logP [7]: 3.77
SMILES: COC(=O)c1sc(-c2ccccc2)nc1O

IC50 [1]: > 100 µM
SMILES: O=C(O)c1sc(-c2ccccc2)nc1O

IC50 [1]: 1.8 µM
SMILES: Cc1nc(-c2sc(-c3cccc(F)c3)nc2O)no1

IC50 [1]: 12.2 µM
SMILES: O=C(c1sc(-c2cccc(F)c2)nc1O)N1CCOCC1
